Source: BindingDB's records for doi:10.1016/j.bmcl.2018.06.004 (Peking University, 2018)

What was measured:
[1] = Inhibition of PGPH activity of 20S proteasome in human K562 cells using Z-nLPnLDaminoluciferin as substrate after 2 hrs by luminescence assay
[2] = Inhibition of trypsin-like activity of 20S proteasome in human K562 cells using Z-LRRaminoluciferin as substrate after 2 hrs by luminescence assay

IC50 [1]: > 100 µM
IC50 [2]: > 100 µM
Structure (SMILES): CC(C)C[C@H](NC(=O)[C@H](Cc1ccccc1)NC(=O)N1C/C(=C\c2ccc(F)cc2)C(=O)/C(=C/c2ccc(F)cc2)C1)B(O)O
